Entries after “also recorded” stand apart in the source; their conditions may differ.
What was measured:
Format in all cases: cell-based
Fpr2^-/- neutrophils = experiment: Inhibition of F2Pal16-induced superoxide release, Fpr2^-/- mouse neutrophils; settings: Boc2 2 μM, 5 min pre-incubation; F2Pal16 500 nM
Source text: (§1) C57BL/6 wild-type mice were purchased from Charles River Laboratories and Fpr2^−/− mice generated as described previously, were generously provided by Dr Ji Ming Wang, Frederick National Laboratory for Cancer Research, USA. Mice were kept under standard temperature and light conditions and fed laboratory chow and water ad libitum, at the Department of Rheumatology and Inflammation Research, University of Gothenburg. Sex matched WT and Fpr2^-/- animals (age 8–10 weeks) were used to isolated bone marrow derived neutrophils. The studies performed were approved by the Ethical Committee for Animal Experimentation, Göteborg, Sweden.
(§2) Mice (8–12 weeks of age) were killed by cervical dislocation, the femurs and tibias were removed and freed of soft tissue attachments, and the extreme distal tip of each extremity was cut off. […] The cell number and population of bone marrow cells were determined by flow cytometry based on forward scatter (size) and side scatter (density) localization.
(§3) NADPH-oxidase activity was determined using an isoluminol and HRP-enhanced chemiluminescence (CL) system that allow for the determination of superoxide production. The CL activity was measured in a six-channel Biolumat LB 9505 apparatus (Berthold Co., Wildbad, Germany), using disposable 4-mL polypropylene tubes with 1 mL reaction mixture. […]

Fpr1 = experiment: Inhibition of fMIFL-induced superoxide release, Fpr2^-/- mouse neutrophils; settings: Boc2 2 μM, 5 min pre-incubation; fMIFL 10 nM
Source text: as §1, §2, §3

Fpr2 = biological target: T1, Fpr2 (Mus musculus, UniProt O88536); experiment: Inhibition of F2Pal16-induced superoxide release, WT mouse neutrophils; settings: Boc2 2 μM or peptidomimetic inhibitor 1 μM (five experiments), or mF2Pal16 500 nM against F2Pal16 500 nM (three experiments); 5 min pre-incubation
T1 construct: WT mouse neutrophils (5 x 10^4 cells) were pre-incubated without (solid line) or with mF2Pal16; endogenous in cells; host or cells: bone marrow neutrophils of C57BL/6 wild-type mice, TNF-alpha primed
T1 sequence (O88536 1-351): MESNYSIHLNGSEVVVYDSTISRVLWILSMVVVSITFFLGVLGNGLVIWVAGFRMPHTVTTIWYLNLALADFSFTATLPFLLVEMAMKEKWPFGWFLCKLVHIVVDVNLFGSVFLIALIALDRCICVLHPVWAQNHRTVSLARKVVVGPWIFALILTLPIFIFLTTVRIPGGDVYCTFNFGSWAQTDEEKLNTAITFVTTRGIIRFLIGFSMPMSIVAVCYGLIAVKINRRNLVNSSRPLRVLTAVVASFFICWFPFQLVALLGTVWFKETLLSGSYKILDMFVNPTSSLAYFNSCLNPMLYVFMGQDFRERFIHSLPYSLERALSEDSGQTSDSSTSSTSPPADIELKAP
Source text: Mice (8–12 weeks of age) were killed by cervical dislocation, the femurs and tibias were removed and freed of soft tissue attachments, and the extreme distal tip of each extremity was cut off. KRG without Ca^2+ and Mg^2+ (KRG-) was forced through the bone by using a 1-mL syringe with a 27-gauge needle. After dispersing cell clumps and removing the debris, the bone marrow granulocytes were isolated according to an earlier described procedure with some modifications. Briefly, a cell suspension in 2 mL of KRG- was laid on top of a three-layer Percoll gradient (1.095, 1.085, and 1.070 g/mL). The density of each Percoll solution was verified using density marker beads. After centrifugation at 500 × g for 30 min at 4°C in a swinging bucket rotor, the lowest band (1.085/1.095 g/mL interface) was collected as the neutrophil fraction. After washing with KRG-, remaining red blood cells were eliminated by hypotonic lysis. After a final wash with KRG-, the cells were resuspended in KRG. The cell number and population of bone marrow cells were determined by flow cytometry based on forward scatter (size) and side scatter (density) localization.
NADPH-oxidase activity was determined using an isoluminol and HRP-enhanced chemiluminescence (CL) system that allow for the determination of superoxide production. The CL activity was measured in a six-channel Biolumat LB 9505 apparatus (Berthold Co., Wildbad, Germany), using disposable 4-mL polypropylene tubes with 1 mL reaction mixture. […] The light emission was recorded continuously over time and presented as superoxide production (in arbitrary light units, cpm x10^-6) as a function of time (min). The activity before stimulus addition was recorded as basal line and this activity was not changed in vehicle control samples. […]
Data analysis was performed using Graph Pad Prism 7.0. The EC50/IC50 values were determined from experiments in which the activities were normalized to the response induced by maximal response or induced by agonist in the absence of inhibitor. […]

## Boc-FLFLF [Boc2, Fpr1 antagonist]
Fpr2^-/- neutrophils
  effect of inhibitor on F2Pal16 response, Fpr2^-/- neutrophils: insensitive to Boc2; also recorded: no effect on the pepducin response
Fpr1
  effect of inhibitor on fMIFL response, Fpr2^-/- neutrophils: completely abolished
Fpr2
  effect of inhibitor on F2Pal16 response, WT mouse neutrophils: no effect on the pepducin response
